The values below are quoted from earlier work in patent US11759428B2, “Pharmaceutical formulation comprising esomeprazole and sodium bicarbonate” (CHONG KUN DANG PHARMACEUTICAL CORP., priority 2018, dated 2023).

SMILES strings stand for the structures.

The conditions of this data set: aqueous solution having 3 or lower of pH.

Take `COc1ccc2nc([S@@+]([O-])Cc3ncc(C)c(OC)c3C)[nH]c2c1` [esomeprazole, (S)-5-methoxy-2-[(4-methoxy-3,5-dimethyl-2-pyridinyl)-methyl]sulfinyl-1H-benzimid azol]: the degradation half-life result was “less than 10 minutes”.
